Tests used:
Test in all cases: relative viability (nuclei count vs DMSO), 5 days (fraction); higher = more cells survive
Quizartinib + Trametinib = compound: CC(C)(C)c1cc(NC(=O)Nc2ccc(-c3cn4c(n3)sc3cc(OCCN5CCOCC5)ccc34)cc2)no1 [Quizartinib] + CC(=O)Nc1cccc(-n2c(=O)n(C3CC3)c(=O)c3c(Nc4ccc(I)cc4F)n(C)c(=O)c(C)c32)c1 [Trametinib] (partner 0.02 µM)
Summary of the method: (§1)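 Five library-drug doses in √10 steps were combined with a fixed anchor-drug dose, or a single drug was given alone, by pin tool to lung cancer cell lines in 1536-well plates the day after seeding. Nuclei were stained and counted after 5 days. Relative viability is the nuclei count in treated wells over that in vehicle wells, taken as the median of duplicate plates.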

Quizartinib + OSI-027 = compound: CC(C)(C)c1cc(NC(=O)Nc2ccc(-c3cn4c(n3)sc3cc(OCCN5CCOCC5)ccc34)cc2)no1 [Quizartinib] + COc1cccc2cc(-c3nc([C@H]4CC[C@H](C(=O)O)CC4)n4ncnc(N)c34)[nH]c12 [OSI-027] (partner 0.5 µM)
Summary of the method: as §1

Quizartinib + AZD7762 = compound: CC(C)(C)c1cc(NC(=O)Nc2ccc(-c3cn4c(n3)sc3cc(OCCN5CCOCC5)ccc34)cc2)no1 [Quizartinib] + NC(=O)Nc1cc(-c2cccc(F)c2)sc1C(=O)N[C@H]1CCCNC1 [AZD7762] (partner 0.2 µM)
Summary of the method: as §1

Quizartinib + Olaparib = compound: CC(C)(C)c1cc(NC(=O)Nc2ccc(-c3cn4c(n3)sc3cc(OCCN5CCOCC5)ccc34)cc2)no1 [Quizartinib] + O=C(c1cc(Cc2n[nH]c(=O)c3ccccc23)ccc1F)N1CCN(C(=O)C2CC2)CC1 [Olaparib] (partner 8 µM)
Summary of the method: as §1

YM155 + Trametinib = compound: COCC[n+]1c2c(n(Cc3cnccn3)c1C)C(=O)c1ccccc1C2=O [YM155] + CC(=O)Nc1cccc(-n2c(=O)n(C3CC3)c(=O)c3c(Nc4ccc(I)cc4F)n(C)c(=O)c(C)c32)c1 [Trametinib] (partner 0.02 µM)
Summary of the method: as §1

YM155 + Olaparib = compound: COCC[n+]1c2c(n(Cc3cnccn3)c1C)C(=O)c1ccccc1C2=O [YM155] + O=C(c1cc(Cc2n[nH]c(=O)c3ccccc23)ccc1F)N1CCN(C(=O)C2CC2)CC1 [Olaparib] (partner 8 µM)
Summary of the method: as §1

NCI-H1648
relative viability (Quizartinib + Trametinib; first compound 0.003162 µM): 0.401
relative viability (Quizartinib + Trametinib; first compound 0.03162 µM): 0.581
relative viability (Quizartinib + Trametinib; first compound 0.1 µM): 0.486
relative viability (Quizartinib + OSI-027; first compound 0.01 µM): 0.258
relative viability (Quizartinib + OSI-027; first compound 0.03162 µM): 0.253
relative viability (Quizartinib + OSI-027; first compound 0.1 µM): 0.259
relative viability (Quizartinib + AZD7762; first compound 0.003162 µM): 0.612
relative viability (Quizartinib + AZD7762; first compound 0.03162 µM): 0.629
relative viability (Quizartinib + AZD7762; first compound 0.1 µM): 0.821
relative viability (Quizartinib + Olaparib; first compound 0.003162 µM): 0.985
relative viability (Quizartinib + Olaparib; first compound 0.03162 µM): 0.604
relative viability (Quizartinib + Olaparib; first compound 0.1 µM): 0.909
relative viability (YM155 + Trametinib; first compound 0.006325 µM): 0.902
relative viability (YM155 + Trametinib; first compound 0.02 µM): 0.444
relative viability (YM155 + Trametinib; first compound 0.06325 µM): 0.651
relative viability (YM155 + Olaparib; first compound 0.006325 µM): 1.06
relative viability (YM155 + Olaparib; first compound 0.02 µM): 0.6
relative viability (YM155 + Olaparib; first compound 0.06325 µM): 0.762
